Measured values from PMC4286194 (Biochemical Journal, 2015).

What was measured:
[1] = test system: Bone-marrow-derived macrophages; assay: Markers of 'regulatory' macrophages (qPCR); format: cell-based, mouse; settings: 3 μM bosutinib or 0.3 μM dasatinib 1 h, then LPS
Experimental: mRNA was extracted from cells using the MicroElute Total RNA kit following the manufacturers’ instructions (Omega Bio-Tek). cDNA was generated from 0.5 μg of total RNA using the iScript cDNA synthesis kit and quantified by quantitative real-time PCR (qPCR) using the SsoFast EvaGreen Supermix on a CFX384 real-time system (Bio-Rad Laboratories). The relative expression of each gene was calculated from CT values using the Pfaffl method and was normalized against the mRNA levels of housekeeping genes including 18S RNA and GAPDH. Results are reported relative to untreated control cells, which were set to 1.

BRSK2 = target: T1, BRSK2 (Homo sapiens, UniProt Q8IWQ3); assay: Kinase profiling; format: biochemical
T1 sequence (Q8IWQ3 1-736): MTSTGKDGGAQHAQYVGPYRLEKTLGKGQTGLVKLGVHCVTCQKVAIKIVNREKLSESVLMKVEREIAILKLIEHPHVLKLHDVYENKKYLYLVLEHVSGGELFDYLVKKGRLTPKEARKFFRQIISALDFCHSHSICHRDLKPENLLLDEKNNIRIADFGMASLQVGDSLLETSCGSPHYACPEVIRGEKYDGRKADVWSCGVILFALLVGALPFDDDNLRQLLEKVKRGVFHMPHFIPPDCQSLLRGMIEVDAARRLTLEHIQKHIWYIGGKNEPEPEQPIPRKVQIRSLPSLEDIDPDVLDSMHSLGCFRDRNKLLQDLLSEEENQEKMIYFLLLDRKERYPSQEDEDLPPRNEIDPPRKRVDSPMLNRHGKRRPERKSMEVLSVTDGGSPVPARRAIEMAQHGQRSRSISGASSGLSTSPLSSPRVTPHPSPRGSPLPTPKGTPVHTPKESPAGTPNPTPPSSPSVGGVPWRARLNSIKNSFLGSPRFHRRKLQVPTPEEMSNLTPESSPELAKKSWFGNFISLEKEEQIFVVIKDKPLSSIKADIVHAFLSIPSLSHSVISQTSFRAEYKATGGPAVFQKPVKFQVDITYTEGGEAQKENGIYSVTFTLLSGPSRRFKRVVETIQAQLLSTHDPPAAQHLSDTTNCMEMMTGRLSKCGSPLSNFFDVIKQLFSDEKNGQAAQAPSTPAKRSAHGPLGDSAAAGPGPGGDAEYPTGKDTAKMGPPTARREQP

HIPK1 = HIPK1 (Homo sapiens, UniProt Q86Z02); assay: Kinase profiling; format: biochemical
Sequence of HIPK1 (Q86Z02 whole entry): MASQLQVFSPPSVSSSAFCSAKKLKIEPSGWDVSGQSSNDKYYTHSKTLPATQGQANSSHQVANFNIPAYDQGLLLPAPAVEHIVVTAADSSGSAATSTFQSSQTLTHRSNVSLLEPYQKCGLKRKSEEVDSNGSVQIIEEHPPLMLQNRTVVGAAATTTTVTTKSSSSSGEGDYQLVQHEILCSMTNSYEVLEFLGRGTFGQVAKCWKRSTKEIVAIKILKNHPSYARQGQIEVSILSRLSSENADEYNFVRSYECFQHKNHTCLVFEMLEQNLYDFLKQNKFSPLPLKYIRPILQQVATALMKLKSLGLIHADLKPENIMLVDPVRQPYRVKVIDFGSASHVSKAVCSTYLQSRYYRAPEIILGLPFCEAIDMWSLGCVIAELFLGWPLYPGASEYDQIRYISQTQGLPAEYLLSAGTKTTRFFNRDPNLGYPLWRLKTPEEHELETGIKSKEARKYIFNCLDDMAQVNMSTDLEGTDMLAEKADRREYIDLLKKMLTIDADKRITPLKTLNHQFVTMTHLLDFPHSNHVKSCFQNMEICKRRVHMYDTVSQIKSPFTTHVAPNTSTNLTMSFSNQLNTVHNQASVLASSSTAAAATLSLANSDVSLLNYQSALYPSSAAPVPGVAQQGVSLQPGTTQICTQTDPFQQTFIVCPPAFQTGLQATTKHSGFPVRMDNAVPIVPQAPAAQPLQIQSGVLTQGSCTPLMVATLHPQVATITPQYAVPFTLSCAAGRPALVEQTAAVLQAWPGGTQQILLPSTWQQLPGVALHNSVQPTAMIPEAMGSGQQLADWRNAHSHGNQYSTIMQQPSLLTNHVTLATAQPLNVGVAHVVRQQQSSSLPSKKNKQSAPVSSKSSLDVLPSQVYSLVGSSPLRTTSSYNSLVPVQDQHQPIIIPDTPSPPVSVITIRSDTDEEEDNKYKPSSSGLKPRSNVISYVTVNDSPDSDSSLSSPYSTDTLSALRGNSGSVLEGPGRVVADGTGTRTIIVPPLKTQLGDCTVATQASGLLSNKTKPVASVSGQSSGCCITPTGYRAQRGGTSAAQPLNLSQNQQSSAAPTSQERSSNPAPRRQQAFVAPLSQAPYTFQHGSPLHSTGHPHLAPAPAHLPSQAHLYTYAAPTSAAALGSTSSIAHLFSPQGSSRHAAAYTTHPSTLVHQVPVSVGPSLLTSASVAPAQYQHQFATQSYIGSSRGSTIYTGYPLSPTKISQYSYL

IRR = IRR (Homo sapiens, UniProt P14616); assay: Kinase profiling; format: biochemical
MAP4K5 = MAP4K5 (Homo sapiens, UniProt Q9Y4K4); assay: Kinase profiling; format: biochemical
Sequence of MAP4K5 (Q9Y4K4 whole entry): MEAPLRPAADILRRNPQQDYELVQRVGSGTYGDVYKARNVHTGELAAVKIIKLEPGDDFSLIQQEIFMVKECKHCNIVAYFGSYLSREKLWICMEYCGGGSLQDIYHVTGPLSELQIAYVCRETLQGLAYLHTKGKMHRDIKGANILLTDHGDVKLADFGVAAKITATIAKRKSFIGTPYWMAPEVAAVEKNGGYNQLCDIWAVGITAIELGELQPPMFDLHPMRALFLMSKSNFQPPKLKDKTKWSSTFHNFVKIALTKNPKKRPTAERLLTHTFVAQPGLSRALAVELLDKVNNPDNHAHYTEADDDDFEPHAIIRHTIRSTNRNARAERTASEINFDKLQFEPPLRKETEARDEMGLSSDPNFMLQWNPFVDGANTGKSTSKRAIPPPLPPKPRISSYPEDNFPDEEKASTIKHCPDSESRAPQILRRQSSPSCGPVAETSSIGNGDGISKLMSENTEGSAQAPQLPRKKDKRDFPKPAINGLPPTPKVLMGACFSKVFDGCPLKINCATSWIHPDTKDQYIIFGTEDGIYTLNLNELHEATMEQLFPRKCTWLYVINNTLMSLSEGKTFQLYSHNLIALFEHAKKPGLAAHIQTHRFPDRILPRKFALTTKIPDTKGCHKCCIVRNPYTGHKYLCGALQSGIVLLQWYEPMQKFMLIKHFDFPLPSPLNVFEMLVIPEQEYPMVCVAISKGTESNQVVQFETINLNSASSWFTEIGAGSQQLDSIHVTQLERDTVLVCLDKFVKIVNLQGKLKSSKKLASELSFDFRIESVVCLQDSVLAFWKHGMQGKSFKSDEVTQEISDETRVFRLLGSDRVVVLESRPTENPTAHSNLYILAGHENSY

MEKK1 = MEKK1 (Homo sapiens, UniProt Q13233); assay: Kinase profiling; format: biochemical
NUAK1 = target: T2, NUAK1 (Homo sapiens, UniProt O60285); assay: Kinase profiling; format: biochemical
T2 sequence (O60285 1-661): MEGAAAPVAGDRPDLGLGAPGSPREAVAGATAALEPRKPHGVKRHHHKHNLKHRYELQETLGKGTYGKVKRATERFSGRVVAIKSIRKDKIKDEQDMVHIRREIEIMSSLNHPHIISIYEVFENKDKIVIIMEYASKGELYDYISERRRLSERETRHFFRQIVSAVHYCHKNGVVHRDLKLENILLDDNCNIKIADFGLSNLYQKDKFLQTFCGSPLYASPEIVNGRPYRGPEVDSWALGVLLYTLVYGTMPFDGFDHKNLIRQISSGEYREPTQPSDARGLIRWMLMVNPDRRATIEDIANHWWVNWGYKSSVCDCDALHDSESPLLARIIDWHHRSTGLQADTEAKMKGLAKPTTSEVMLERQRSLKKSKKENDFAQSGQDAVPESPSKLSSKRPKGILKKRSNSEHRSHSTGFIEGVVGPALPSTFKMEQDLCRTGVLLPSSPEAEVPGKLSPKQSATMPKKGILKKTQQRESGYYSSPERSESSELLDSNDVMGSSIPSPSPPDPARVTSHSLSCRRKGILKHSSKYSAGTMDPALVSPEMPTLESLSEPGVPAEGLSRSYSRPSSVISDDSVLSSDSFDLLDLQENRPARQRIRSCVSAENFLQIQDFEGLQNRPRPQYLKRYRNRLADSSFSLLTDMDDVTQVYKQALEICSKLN

p38 beta MAPK = p38 beta MAPK (Homo sapiens, UniProt Q15759); assay: Kinase profiling; format: biochemical
PAK5 = PAK5 (Homo sapiens, UniProt Q9P286); assay: Kinase profiling; format: biochemical
Sequence of PAK5 (Q9P286 whole entry): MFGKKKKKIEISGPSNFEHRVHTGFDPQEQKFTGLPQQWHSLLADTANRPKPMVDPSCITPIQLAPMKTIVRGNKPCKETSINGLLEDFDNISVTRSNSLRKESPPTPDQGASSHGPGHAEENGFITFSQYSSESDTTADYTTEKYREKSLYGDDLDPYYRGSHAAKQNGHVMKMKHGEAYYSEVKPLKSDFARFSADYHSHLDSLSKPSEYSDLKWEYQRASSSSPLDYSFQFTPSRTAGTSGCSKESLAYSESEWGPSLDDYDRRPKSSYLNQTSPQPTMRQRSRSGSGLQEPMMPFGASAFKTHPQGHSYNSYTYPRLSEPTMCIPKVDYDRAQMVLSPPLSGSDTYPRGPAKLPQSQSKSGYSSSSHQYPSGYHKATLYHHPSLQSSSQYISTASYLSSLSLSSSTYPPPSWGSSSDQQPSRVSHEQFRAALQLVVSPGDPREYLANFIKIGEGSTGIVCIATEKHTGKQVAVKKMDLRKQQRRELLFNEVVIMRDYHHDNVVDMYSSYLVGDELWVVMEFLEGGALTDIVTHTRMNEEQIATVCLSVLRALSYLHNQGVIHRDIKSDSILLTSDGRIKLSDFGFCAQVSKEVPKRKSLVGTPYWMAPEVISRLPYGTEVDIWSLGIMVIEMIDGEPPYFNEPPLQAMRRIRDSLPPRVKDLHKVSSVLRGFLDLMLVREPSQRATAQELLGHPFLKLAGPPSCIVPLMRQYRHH

PDK1 = target: T3, PDK1 (Homo sapiens, UniProt O15530); assay: Kinase profiling; format: biochemical
T3 sequence (O15530 1-556): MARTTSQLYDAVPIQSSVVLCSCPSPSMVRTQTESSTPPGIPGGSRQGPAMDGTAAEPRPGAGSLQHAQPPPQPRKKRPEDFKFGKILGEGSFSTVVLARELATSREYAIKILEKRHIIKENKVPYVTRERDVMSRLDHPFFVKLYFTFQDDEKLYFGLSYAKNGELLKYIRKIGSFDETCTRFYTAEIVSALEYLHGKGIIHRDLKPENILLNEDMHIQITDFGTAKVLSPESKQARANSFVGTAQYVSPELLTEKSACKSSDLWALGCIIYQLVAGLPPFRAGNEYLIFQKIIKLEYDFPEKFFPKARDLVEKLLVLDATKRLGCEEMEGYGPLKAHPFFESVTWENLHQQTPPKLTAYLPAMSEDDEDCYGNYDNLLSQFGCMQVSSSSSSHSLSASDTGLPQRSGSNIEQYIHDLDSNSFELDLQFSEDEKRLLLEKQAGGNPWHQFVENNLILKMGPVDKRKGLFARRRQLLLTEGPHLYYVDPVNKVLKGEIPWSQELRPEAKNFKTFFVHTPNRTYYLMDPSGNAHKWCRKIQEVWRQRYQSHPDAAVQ

SIK2 = SIK2 (Homo sapiens, UniProt Q9H0K1); assay: Kinase profiling; format: biochemical
Sequence of SIK2 (Q9H0K1 whole entry): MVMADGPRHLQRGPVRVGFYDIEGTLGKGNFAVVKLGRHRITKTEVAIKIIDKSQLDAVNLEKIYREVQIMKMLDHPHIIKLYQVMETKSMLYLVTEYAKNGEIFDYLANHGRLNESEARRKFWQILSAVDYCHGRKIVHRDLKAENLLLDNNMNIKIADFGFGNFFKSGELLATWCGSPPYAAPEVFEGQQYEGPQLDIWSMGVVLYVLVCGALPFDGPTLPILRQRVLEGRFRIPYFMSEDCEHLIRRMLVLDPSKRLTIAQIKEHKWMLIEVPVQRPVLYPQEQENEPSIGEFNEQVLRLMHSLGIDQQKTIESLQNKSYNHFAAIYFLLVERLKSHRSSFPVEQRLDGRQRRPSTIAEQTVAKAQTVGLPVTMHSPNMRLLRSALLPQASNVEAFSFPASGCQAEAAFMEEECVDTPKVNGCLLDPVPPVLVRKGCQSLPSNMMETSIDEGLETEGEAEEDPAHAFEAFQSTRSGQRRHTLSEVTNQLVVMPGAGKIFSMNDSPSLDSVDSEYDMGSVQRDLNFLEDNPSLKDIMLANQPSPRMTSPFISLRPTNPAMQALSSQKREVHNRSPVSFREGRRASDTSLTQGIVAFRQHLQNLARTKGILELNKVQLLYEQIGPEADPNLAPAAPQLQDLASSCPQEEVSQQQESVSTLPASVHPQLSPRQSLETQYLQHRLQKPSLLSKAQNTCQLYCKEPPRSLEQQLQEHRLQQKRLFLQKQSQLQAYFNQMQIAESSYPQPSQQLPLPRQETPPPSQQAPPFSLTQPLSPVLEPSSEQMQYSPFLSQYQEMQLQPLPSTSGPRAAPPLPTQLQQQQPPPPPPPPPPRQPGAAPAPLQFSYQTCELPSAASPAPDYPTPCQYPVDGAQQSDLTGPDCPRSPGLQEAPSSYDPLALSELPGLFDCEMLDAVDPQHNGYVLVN

TTBK1 = TTBK1 (Homo sapiens, UniProt Q5TCY1); assay: Kinase profiling; format: biochemical
Sequence of TTBK1 (Q5TCY1 whole entry): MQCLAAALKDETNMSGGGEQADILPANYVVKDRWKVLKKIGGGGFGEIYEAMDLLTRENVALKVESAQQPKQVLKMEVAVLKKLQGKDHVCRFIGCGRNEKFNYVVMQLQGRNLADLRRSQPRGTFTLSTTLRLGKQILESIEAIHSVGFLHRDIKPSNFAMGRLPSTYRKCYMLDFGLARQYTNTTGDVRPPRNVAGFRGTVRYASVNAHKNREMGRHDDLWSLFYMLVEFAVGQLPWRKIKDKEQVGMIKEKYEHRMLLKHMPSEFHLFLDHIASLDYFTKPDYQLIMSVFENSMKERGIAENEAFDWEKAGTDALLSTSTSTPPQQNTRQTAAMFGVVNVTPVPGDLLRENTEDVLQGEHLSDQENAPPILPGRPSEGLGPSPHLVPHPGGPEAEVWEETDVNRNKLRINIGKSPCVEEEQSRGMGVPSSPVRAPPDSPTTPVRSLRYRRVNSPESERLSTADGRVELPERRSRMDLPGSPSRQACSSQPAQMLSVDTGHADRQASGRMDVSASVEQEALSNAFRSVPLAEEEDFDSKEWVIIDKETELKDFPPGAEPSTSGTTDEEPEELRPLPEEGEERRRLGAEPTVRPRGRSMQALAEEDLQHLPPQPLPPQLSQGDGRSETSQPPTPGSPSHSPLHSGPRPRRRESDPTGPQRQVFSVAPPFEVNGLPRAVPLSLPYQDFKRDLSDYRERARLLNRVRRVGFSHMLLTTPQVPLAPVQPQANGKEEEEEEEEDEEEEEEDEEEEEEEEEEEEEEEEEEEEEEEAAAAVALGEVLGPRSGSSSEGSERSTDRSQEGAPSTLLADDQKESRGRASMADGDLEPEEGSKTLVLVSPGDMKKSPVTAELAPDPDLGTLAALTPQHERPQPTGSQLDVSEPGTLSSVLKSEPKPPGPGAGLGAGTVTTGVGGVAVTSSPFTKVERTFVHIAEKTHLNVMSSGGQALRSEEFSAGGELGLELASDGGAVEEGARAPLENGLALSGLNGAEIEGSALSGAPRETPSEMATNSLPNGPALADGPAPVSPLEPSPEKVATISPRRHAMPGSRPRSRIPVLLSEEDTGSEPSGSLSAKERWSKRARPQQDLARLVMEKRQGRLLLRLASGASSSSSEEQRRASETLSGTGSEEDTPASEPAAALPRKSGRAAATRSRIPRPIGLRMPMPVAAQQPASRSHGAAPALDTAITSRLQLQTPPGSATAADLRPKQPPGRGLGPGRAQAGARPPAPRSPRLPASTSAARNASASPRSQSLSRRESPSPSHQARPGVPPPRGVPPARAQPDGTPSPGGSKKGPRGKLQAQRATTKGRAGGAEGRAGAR

| Structure (SMILES) | Expression of SPHK1, LIGHT and arginase 1 [1] | remaining activity at 0.1 µM (BRSK2) [%] | remaining activity at 1 µM (BRSK2) [%] | remaining activity at 0.1 µM (HIPK1) [%] | remaining activity at 1 µM (HIPK1) [%] | remaining activity at 0.1 µM (IRR) [%] | remaining activity at 1 µM (IRR) [%] | remaining activity at 0.1 µM (MAP4K5) [%] | remaining activity at 0.1 µM (MEKK1) [%] | remaining activity at 1 µM (MEKK1) [%] | remaining activity at 0.1 µM (NUAK1) [%] | remaining activity at 1 µM (NUAK1) [%] | remaining activity at 0.1 µM (p38 beta MAPK) [%] | remaining activity at 1 µM (p38 beta MAPK) [%] | remaining activity at 0.1 µM (PAK5) [%] | remaining activity at 1 µM (PAK5) [%] | remaining activity at 0.1 µM (PDK1) [%] | remaining activity at 1 µM (PDK1) [%] | remaining activity at 0.1 µM (SIK2) [%] | remaining activity at 1 µM (SIK2) [%] | also measured |
| --- | --- | --- | --- | --- | --- | --- | --- | --- | --- | --- | --- | --- | --- | --- | --- | --- | --- | --- | --- | --- | --- |
| COc1cc(Nc2c(C#N)cnc3cc(OCCCN4CCN(C)CC4)c(OC)cc23)c(Cl)cc1Cl [Bosutinib, bosutinib] | elevated | 107 ± 12 | 120 ± 4 | 95 | 57 | 72 ± 5 | 59 ± 1 | 0 | 95 ± 5 | 85 ± 6 | 63 ± 12 | 21 ± 2 | 94 ± 15 | 108 ± 24 | 105 ± 18 | 129 ± 5 | 92 ± 16 | 98 | 8 | 3 | remaining activity at 1 µM (MAP4K5; 1 µM): 1%; remaining activity at 0.1 µM (TTBK1): 95 ± 2%; remaining activity at 1 µM (TTBK1): 114 ± 3% |
| Cc1nc(Nc2ncc(C(=O)Nc3c(C)cccc3Cl)s2)cc(N2CCN(CCO)CC2)n1 [Dasatinib] | elevated | 102 ± 14 | 108 ± 13 | 105 ± 4 | 122 ± 6 | 89 ± 4 | 90 ± 14 | 22 ± 1 | 98 ± 4 | 102 ± 1 | 119 ± 10 | 118 ± 8 | 105 ± 11 | 44 ± 4 | 131 ± 12 | 138 ± 7 | 94 ± 9 | 92 ± 1 | 4 ± 1 | 2 ± 1 | remaining activity at 0.1 µM (TTBK1): 112 ± 8%; remaining activity at 1 µM (TTBK1): 112 ± 1% |
